Results published in US20010014454A1, “NOVEL METAL COMPLEXES” (priority 2000, published 2001).

T1: G-CSF receptor (Mus musculus, UniProt P40223)
T1 construct: they express endogenous G-CSF receptors; endogenous in cells; host or cells: NFS60 murine myeloid cells with a G-CSF-responsive luciferase reporter
T1 sequence (P40223 26-837): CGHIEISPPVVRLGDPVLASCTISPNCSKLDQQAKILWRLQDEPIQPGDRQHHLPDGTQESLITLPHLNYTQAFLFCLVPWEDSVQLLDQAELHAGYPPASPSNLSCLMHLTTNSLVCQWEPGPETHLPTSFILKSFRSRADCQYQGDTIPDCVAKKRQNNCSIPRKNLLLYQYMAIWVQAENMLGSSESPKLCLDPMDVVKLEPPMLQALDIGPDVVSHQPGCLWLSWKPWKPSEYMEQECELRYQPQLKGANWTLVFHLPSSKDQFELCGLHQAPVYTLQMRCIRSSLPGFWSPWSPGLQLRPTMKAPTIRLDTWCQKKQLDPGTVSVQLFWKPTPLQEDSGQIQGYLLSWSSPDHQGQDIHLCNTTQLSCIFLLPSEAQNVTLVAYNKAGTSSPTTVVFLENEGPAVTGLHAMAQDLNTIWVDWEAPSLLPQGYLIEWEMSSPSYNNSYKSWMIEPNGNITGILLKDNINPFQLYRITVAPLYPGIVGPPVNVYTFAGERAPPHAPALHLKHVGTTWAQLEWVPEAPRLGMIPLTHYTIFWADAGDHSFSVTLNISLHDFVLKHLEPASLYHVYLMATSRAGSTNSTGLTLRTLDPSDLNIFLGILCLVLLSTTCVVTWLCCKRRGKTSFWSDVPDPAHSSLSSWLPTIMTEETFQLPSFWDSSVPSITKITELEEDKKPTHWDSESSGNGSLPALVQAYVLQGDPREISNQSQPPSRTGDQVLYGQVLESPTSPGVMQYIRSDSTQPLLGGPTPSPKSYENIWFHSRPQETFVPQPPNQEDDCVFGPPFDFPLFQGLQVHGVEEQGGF


Key:
[1] = molecular target: T1, G-CSF receptor; assay: Luciferase reporter gene assay in G-CSF-responsive NFS60 cells; type: cell-based, murine; details: absence of zinc
Method: Activity of compound 1a is below the threshold of 150% over background. The study was performed as a Luciferase assay configured on the G-CSF-responsive NFS60 cell line as described in Tian et al., Science 281, 257-259 (1998). The experiments shown in FIGS. 2-8 used the same NFS60 cell line.
Compounds of the present invention are tested for potency as agonist of a dimeric cell-surface receptor in a Luciferase reporter gene assay such as described in Tian et al., Science 281. 257-259 (1998). For example, for G-CSF NFS60 cells (Holmes, et al., Proc. Natl. Acad. Sci. USA 82: 6687-6691 (1985)) are selected because they express endogenous G-CSF receptors closely matching the pattern of STAT (signal transducers and activators of transcription) activation observed in primary murine and human bone marrow cells.

[2] = molecular target: T1, G-CSF receptor; assay: Luciferase assay and EDTA (NFS60 cells, with or without metal chlorides); type: cell-based, murine; details: for agonist activity in the presence of EDTA: in the presence of EDTA (FIGS. 3 and 4)
Method: FIG. 3 is an analysis of the effect of ethylenediaminetetraacetic acid (as used herein—EDTA) on the activity of Compound 1a (from Example 1) in NFS60 cells. Shown are luciferase response curves of Compound 1a at the indicated concentrations and in the presence of various concentrations of EDTA. […] The media in this assay contained a small amount (1-5 uM) of zinc(II).
FIGS. 7 and 8 show an analysis of the effect of metal chlorides on the EDTA depleted activity of Compound 1a on NFS60 cells. Shown are luciferase response curves as effected by the indicated metal chlorides. […] None of the other metals tested could overcome the inhibitory effect of EDTA.
In order to determine the requisiteness of zinc chelation of small organic molecules to agonist activity at dimeric cell-surface receptors, the above luciferase assay was performed on the G-CSF receptor in the presence of EDTA. EDTA is a strong metal chelator and had as it only effect, the removal of zinc from the ligand-receptor interaction.

[3] = system: peripheral blood neutrophil and monocyte count; assay: In vivo evaluation of peripheral blood neutrophil and monocyte count in the mouse
Method: Compounds of this invention are also tested for activity in the following assays: CFU-G assay (an example of which is described in King A G, Talmadge J., Badger A M, Pelus L M. Regulation of colony stimulating activity production from bone marrow stromal cells by the hematoregulatory peptide, HP-5. Exp. Hematol. 20:223-228, 1992) and in vivo evaluation of peripheral blood neutrophil and monocyte count in the mouse (an example of which is described in Pelus, L. M.; King, A. G.; Broxmeyer, H. E.; DeMarsh, P. L.; Petteway, S. R.; Bhatnagar, P. K., In vivo modulation of hematopoiesis by a novel hematoregulatory peptide Exp-Hematol. 1994 22(3): 239-47). In order to confirm the requirement for zinc(II) chelation, the above CFU-G assay was also conducted in the presence of EDTA.

[4] = molecular target: G-CSF/Fc fusion protein; assay: Isothermal titration microcalorimetry; type: binding; details: in the presence of zinc
Method: Zinc-mediated affinity of compounds from this invention for dimeric cell-surface receptors (specifically the G-CSF receptor) was measured by isothermal titration microcalorimetry experiments. Titration microcalorimetry detects binding as heat originating from the intrinsic bond forming enthalpy change. In this assay, the compounds were titrated first against zinc(II) alone. In a separate experiment, the compounds were then assayed in the presence of zinc and a dimeric cell-surface receptor/Fc fusion protein (a G-CSF/Fc fusion protein), which contained the extracellular domain of the receptor presented in a dimeric form due to the Fc component.

Row | Molecule | luciferase activity over background [1] [%] | effect of metal chlorides on the EDTA depleted luciferase activity ([2]; Compound 1a, 50 micromolar EDTA, plus metal chlorides) | effect of EDTA on luciferase activity ([2]; EDTA at 1.2 millimolar, media contained 1-5 uM zinc(II)) | agonist activity in the presence of EDTA [2] | peripheral blood neutrophil and monocyte count [3] | affinity for the fusion protein construct [4] | effect of EDTA on luciferase activity ([2]; EDTA at both 1.2 and 5 millimolar)
1 | c1ccc(C23NC(=Nc4nc5ccccc5[nH]4)NC2(c2ccccn2)NC(=Nc2nc4ccccc4[nH]2)N3)nc1 (stereo not shown) [Compound 1a, 2,5-Bis[2-benzimidazolylimino]-3a,6a-bis(2-pyridyl)-1,2,3,3a,4,5,6,6a-octahydroimidazo[4,5-d]imidazole] | < 150 | Only zinc (II) at concentrations 0.5-10 micromolar can overcome the inhibition | antagonized | abrogated | elevation | submicromolar | 
2 | Cc1ccc2nc(N=C3NC4(c5ccccn5)NC(=Nc5nc6ccccc6[nH]5)NC4(c4ccccn4)N3)[nH]c2c1.O=C(O)C(F)(F)F.O=C(O)C(F)(F)F (stereo not shown) [Compound 3a, 5-(2-benzimidazolylimino)-2-[(5-methyl-2-benzimidazolyl)imino]-3a,6a-bis(2-pyridyl)-1,2,3,3a,4,5,6,6a-octahydroimidazo[4,5-d]imidazole bis(trifluoroacetate) salt] |  |  |  |  | elevation | submicromolar | 
3 | recombinant G-CSF: the natural ligand (i.e. G-CSF or recombinant G-CSF) of the G-CSF receptor (protein, UniProt P09919 31-207, looked up) Granulocyte …: TPLGPASSLPQSFLLKCLEQVRKIQGDGAALQEKLVSECATYKLCHPEELVLLGHSLGIPWAPLSSCPSQALQLAGCLSQLHSGLFLYQGLLQALEGISPELGPTLDTLQLDVADFATTIWQQMEELGMAPALQPTQGAMPAFASAFQRRAGGVLVASHLQSFLEVSYRVLRHLAQP |  |  |  | not mediated by metal ions |  |  | little effect
